PubChem BioAssay (NCI)
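Dose response: 5 concentrations. Exposure: 48 h. Format: 96-well plates. Endpoint: linear interpolation; highest concentration if not reached. TGI is the concentration that stops growth completely.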

Columns and labels:
Test in all cases: inhibition of tumour cell growth, NCI panel, 48 h
[1] = test system: HCT-15 colon
[2] = test system: CCRF-CEM leukemia
[3] = test system: TK-10 renal
[4] = test system: SNB-19 CNS
[5] = test system: NCI-H226 lung
[6] = test system: SF-539 CNS
[7] = test system: SK-MEL-28 melanoma
[8] = test system: RXF 393 renal
[9] = test system: 786-0 renal
[10] = test system: HOP-92 NSCLC
[11] = test system: SW-620 colon
[12] = test system: NCI-H460 lung
[13] = test system: OVCAR-4 ovarian
[14] = test system: NCI-H522 lung
[15] = test system: UACC-62 melanoma
[16] = test system: A498 renal
[17] = test system: MDA-MB-231 breast
[18] = test system: T-47D breast
[19] = test system: PC-3 prostate
[20] = test system: BT-549 breast

## CCCCCCn1c(SCC)c2ccccc2c1-c1nc(F)nc(F)n1
[1]
  TGI: > 100 µM
[2]
  TGI: > 100 µM
[3]
  TGI: > 100 µM
[4]
  TGI: > 100 µM
[5]
  TGI: > 100 µM
[6]
  TGI: > 100 µM
[7]
  TGI: > 100 µM
[8]
  TGI: > 100 µM
[9]
  TGI: > 100 µM
[10]
  TGI: > 100 µM
[11]
  TGI: > 100 µM
[12]
  TGI: > 100 µM
[13]
  TGI: > 100 µM
[14]
  TGI: > 100 µM

## CN(C(=O)C12C3C4C1C1C2C3C41I)C(C)(C)C (centres undefined)
[1]
  TGI: > 100 µM
[2]
  TGI: > 43 µM
[3]
  TGI: > 100 µM
[4]
  TGI: > 100 µM
[15]
  TGI: > 100 µM
[5]
  TGI: > 94.6 µM
[16]
  TGI: > 100 µM
[6]
  TGI: > 100 µM
[7]
  TGI: > 100 µM
[9]
  TGI: > 100 µM
[11]
  TGI: > 100 µM
[12]
  TGI: > 100 µM
[13]
  TGI: > 100 µM
[14]
  TGI: > 100 µM

## NC(=O)OCC(COc1ccc(Cl)cc1)OC(=O)c1ccccc1Cl (centres undefined)
[1]
  TGI: 30 µM
[2]
  TGI: 47.4 µM
[3]
  TGI: 79.9 µM
[4]
  TGI: 97.7 µM
[15]
  TGI: 31.4 µM
[5]
  TGI: 60.2 µM
[16]
  TGI: > 100 µM
[6]
  TGI: 36.1 µM
[7]
  TGI: 37.7 µM
[8]
  TGI: 25.7 µM
[9]
  TGI: 36.6 µM
[10]
  TGI: 45.1 µM
[11]
  TGI: 36.4 µM
[12]
  TGI: 30.9 µM
[14]
  TGI: 31.9 µM

## CCOC(=O)/C(O)=C(/C=N\C(=S)Nc1ccccc1Cl)C(=O)OCC
[1]
  TGI: > 100 µM
[2]
  TGI: > 100 µM
[17]
  TGI: > 100 µM
[18]
  TGI: > 100 µM
[4]
  TGI: > 100 µM
[15]
  TGI: > 100 µM
[5]
  TGI: > 100 µM
[16]
  TGI: > 100 µM
[6]
  TGI: > 100 µM
[7]
  TGI: > 100 µM
[8]
  TGI: > 100 µM
[9]
  TGI: > 100 µM
[10]
  TGI: 90.9 µM
[11]
  TGI: > 100 µM
[12]
  TGI: > 100 µM
[19]
  TGI: > 100 µM
[13]
  TGI: > 100 µM
[14]
  TGI: > 100 µM

## O=C(c1ccc(Cl)cc1Cl)N(C(=O)N1CCC(c2ccccc2)CC1)c1ccccc1
[1]
  TGI: > 100 µM
[2]
  TGI: > 100 µM
[18]
  TGI: > 100 µM
[4]
  TGI: > 100 µM
[15]
  TGI: > 100 µM
[5]
  TGI: > 100 µM
[16]
  TGI: > 100 µM
[6]
  TGI: > 100 µM
[7]
  TGI: > 100 µM
[9]
  TGI: > 100 µM
[10]
  TGI: > 100 µM
[20]
  TGI: > 100 µM
[11]
  TGI: > 100 µM
[12]
  TGI: > 100 µM
[19]
  TGI: > 100 µM

## CC#COP(=O)(OCC)OCC
[1]
  TGI: > 100 µM
[2]
  TGI: > 100 µM
[3]
  TGI: > 100 µM
[4]
  TGI: > 100 µM
[15]
  TGI: > 100 µM
[5]
  TGI: > 100 µM
[16]
  TGI: > 100 µM
[6]
  TGI: > 100 µM
[9]
  TGI: > 100 µM
[11]
  TGI: > 100 µM
[12]
  TGI: > 100 µM
[13]
  TGI: > 100 µM
[14]
  TGI: > 100 µM

## COc1cc(NC(C)=O)c2[nH]c3c(C)cc(NC(C)=O)c(C)c3c2c1
[1]
  TGI: > 100 µM
[2]
  TGI: > 100 µM
[3]
  TGI: > 100 µM
[4]
  TGI: > 100 µM
[5]
  TGI: > 100 µM
[16]
  TGI: > 100 µM
[6]
  TGI: > 100 µM
[7]
  TGI: > 100 µM
[8]
  TGI: > 100 µM
[9]
  TGI: > 100 µM
[10]
  TGI: > 100 µM
[11]
  TGI: > 100 µM
[12]
  TGI: > 100 µM
[13]
  TGI: > 100 µM
[14]
  TGI: > 100 µM

## CCOC(=O)NC(C(F)(F)F)(C(F)(F)F)P(=O)(OC(C)C)OC(C)C
[1]
  TGI: > 100 µM
[2]
  TGI: > 100 µM
[17]
  TGI: > 100 µM
[3]
  TGI: > 100 µM
[4]
  TGI: > 100 µM
[15]
  TGI: > 100 µM
[5]
  TGI: > 100 µM
[6]
  TGI: > 100 µM
[7]
  TGI: > 100 µM
[8]
  TGI: > 100 µM
[9]
  TGI: > 100 µM
[20]
  TGI: > 100 µM
[11]
  TGI: > 100 µM
[12]
  TGI: > 100 µM
[19]
  TGI: > 100 µM
[13]
  TGI: > 100 µM

## CCc1nnc(CC)n1NCCCC(=O)O
[1]
  TGI: > 100 µM
[2]
  TGI: > 100 µM
[17]
  TGI: > 100 µM
[3]
  TGI: > 100 µM
[4]
  TGI: > 100 µM
[15]
  TGI: > 100 µM
[6]
  TGI: > 100 µM
[7]
  TGI: > 100 µM
[8]
  TGI: > 100 µM
[9]
  TGI: > 100 µM
[10]
  TGI: > 100 µM
[20]
  TGI: > 100 µM
[11]
  TGI: > 100 µM
[19]
  TGI: > 100 µM
[13]
  TGI: > 100 µM
[14]
  TGI: > 100 µM

## COC(=O)c1[nH]c(=S)[nH]c(=O)c1-c1ccc(Cl)cc1
[1]
  TGI: > 50 µM
[2]
  TGI: > 50 µM
[3]
  TGI: > 50 µM
[4]
  TGI: > 50 µM
[15]
  TGI: > 50 µM
[5]
  TGI: > 50 µM
[16]
  TGI: > 50 µM
[6]
  TGI: > 50 µM
[7]
  TGI: > 50 µM
[8]
  TGI: > 50 µM
[9]
  TGI: > 50 µM
[10]
  TGI: > 50 µM
[11]
  TGI: > 50 µM
[12]
  TGI: > 50 µM
[13]
  TGI: > 50 µM
[14]
  TGI: > 50 µM

## C/C(CN1C(=O)c2ccccc2C1=O)=N\NS(=O)(=O)c1ccc(Br)cc1
[1]
  TGI: > 100 µM
[2]
  TGI: > 100 µM
[3]
  TGI: > 100 µM
[4]
  TGI: > 100 µM
[15]
  TGI: > 100 µM
[5]
  TGI: > 100 µM
[16]
  TGI: > 100 µM
[6]
  TGI: > 100 µM
[7]
  TGI: > 100 µM
[8]
  TGI: > 100 µM
[9]
  TGI: > 100 µM
[10]
  TGI: > 100 µM
[11]
  TGI: > 100 µM
[12]
  TGI: > 100 µM
[13]
  TGI: > 100 µM
[14]
  TGI: > 100 µM

## O=c1c2cc(S(=O)(=O)Nc3ccccc3Cl)ccc2ncn1NS(=O)(=O)c1ccc(Br)cc1
[1]
  TGI: > 37.5 µM
[2]
  TGI: > 37.5 µM
[17]
  TGI: > 37.5 µM
[3]
  TGI: > 37.5 µM
[4]
  TGI: > 37.5 µM
[15]
  TGI: > 37.5 µM
[5]
  TGI: > 37.5 µM
[6]
  TGI: > 37.5 µM
[7]
  TGI: > 37.5 µM
[9]
  TGI: > 37.5 µM
[10]
  TGI: > 37.5 µM
[20]
  TGI: > 37.5 µM
[11]
  TGI: > 37.5 µM
[12]
  TGI: > 37.5 µM
[19]
  TGI: > 37.5 µM
[13]
  TGI: > 37.5 µM
[14]
  TGI: > 37.5 µM

## O=C(O)C1CC2C3CCC2C1C3=O (centres undefined)
[1]
  TGI: > 100 µM
[2]
  TGI: > 100 µM
[17]
  TGI: > 100 µM
[3]
  TGI: > 100 µM
[18]
  TGI: > 100 µM
[4]
  TGI: > 100 µM
[15]
  TGI: > 100 µM
[5]
  TGI: > 100 µM
[16]
  TGI: > 100 µM
[6]
  TGI: > 100 µM
[7]
  TGI: > 100 µM
[8]
  TGI: > 100 µM
[9]
  TGI: > 100 µM
[10]
  TGI: > 100 µM
[11]
  TGI: > 100 µM
[12]
  TGI: > 100 µM
[19]
  TGI: > 100 µM
[13]
  TGI: > 100 µM
[14]
  TGI: > 100 µM

## Cn1c(O)c(C(=O)Nc2cccs2)c(=O)[nH]c1=S
[1]
  TGI: 43 µM
[2]
  TGI: > 100 µM
[3]
  TGI: 61.6 µM
[4]
  TGI: 79.6 µM
[15]
  TGI: 27.2 µM
[5]
  TGI: 42.6 µM
[16]
  TGI: 35.8 µM
[6]
  TGI: 30.3 µM
[7]
  TGI: 29 µM
[9]
  TGI: 41.8 µM
[10]
  TGI: 33.4 µM
[11]
  TGI: 87.6 µM
[12]
  TGI: 43.7 µM
[13]
  TGI: 66.1 µM
[14]
  TGI: 27.6 µM
